Experimental data reported in paper PMC10117725, “From an Hsp90 - binding protein to a peptide drug” (microLife, 2022).
Where no end group is shown, it is not given here.

What was measured:
[1] = system: F-actin levels in N/TERT-1 cells; experiment: F-actin measurement (ActinGreen 488 fluorescence) in N/TERT-1 cells; format: cell-based, human; settings: L15 20 µM, L13 30 µM, geldanamycin 5 µM; 1.5 h; relative to control
Description: About 5 × 10^4 cells were seeded in black flat bottom 96 well cell culture microplate (Greiner, Germany) and incubated overnight. The cells were then incubated with peptides or geldanamycin for 1.5 h. After incubation, the cells were washed, permeabilised with 0.1% (v/v) Triton X-100 and stained with ActinGreen™ 488 ReadyProbes® (Thermo Fischer, Germany) for 30 min. After the staining, the cells were washed and measure for its fluorescence at Excitation/Emission: 495/518 nm (Luqman et al. [2020]).

[2] = system: S. aureus USA300 infected PBMCs; experiment: Cytokine release of S. aureus USA300 infected PBMCs (ELISA); format: cell-based, human; settings: L15 20 µM, L13 30 µM, geldanamycin 5 µM; 20 h; n = 5; vs unstimulated infected PBMCs
[3] = system: S. aureus USA300 internalization by HaCaT cells; experiment: S. aureus USA300 invasion (internalization) into HaCaT keratinocytes; format: cell-based, human; settings: for relative invasion (intracellular USA300 count) in HaCaT at 20 µM: peptide 20 µM; for relative invasion (intracellular USA300 count) in HaCaT at 50 µM: peptide 50 µM; for decrease in uptake/invasion of S. aureus USA300 by HaCaT cells compared to untreated control: preincubation with L15 20 µM, L13 30 µM, geldanamycin 5 µM or α-Hsp90α antibody, MOI 30; for concentration from which a significant reduction of intracellular USA300 was observed: tested 0 to 50 µM in HaCaT
Description: The invasion protocol was adapted from our previous papers (Nguyen et al. [2015], Tribelli et al. [2020]). About 5 × 10^5 Keratinocytes were seeded in a 24 well plate (Greiner, Frickenhausen, Germany) to attain a monolayer of ∼10^6 cells/well. Staphylococcusaureus was grown overnight at 37°C, centrifuged and suspended in invasion medium (DMEM with 10% FBS for HaCaT and K-SFM for NTERT-1 cells). The adherent keratinocytes were […], or 5 µM geldanamycin (Sigma-Aldrich, Germany) or monoclonal antibodies specific against Hsp90α (α‐Hsp90α, Abcam) for 1 h. After 1 h, 100 µl of bacterial suspension was added to each well to attain a MOI (multiplicity of infection) of 30 and incubated with cells for 1.5 h. Subsequently, the extracellular bacteria were killed with treatment of 2.5 μg/ml lysostaphin (Sigma-Aldrich, Germany) for 1.5 h. The cells were then washed, lysed, mechanically detached by scraping, diluted, and enumerated on TSA (Tryptic Soy Agar) plates to quantify the intracellular bacteria.

Solubility in PBS = format: physicochemical; settings: qualitative statement
[4] = system: S. aureus USA300 invasion into N/TERT-1 cells; experiment: S. aureus USA300 invasion into N/TERT-1 keratinocytes; format: cell-based, human; settings: pretreatment with L15 20 µM, L13 30 µM, geldanamycin 5 µM or α-Hsp90α antibody
Description: The invasion protocol was adapted from our previous papers (Nguyen et al. [2015], Tribelli et al. [2020]). About 5 × 10^5 Keratinocytes were seeded in a 24 well plate (Greiner, Frickenhausen, Germany) to attain a monolayer of ∼10^6 cells/well. Staphylococcusaureus was grown overnight at 37°C, centrifuged and suspended in invasion medium (DMEM with 10% FBS for HaCaT and K-SFM for NTERT-1 cells). The adherent keratinocytes were washed with PBS and supplemented with invasion medium followed by treatment with 20 µM of L15, 30 µM of L13, or 5 µM geldanamycin (Sigma-Aldrich, Germany) or monoclonal antibodies specific against Hsp90α (α‐Hsp90α, Abcam) for 1 h. After 1 h, 100 µl of bacterial suspension was added to each well to attain a MOI (multiplicity of infection) of 30 and incubated with cells for 1.5 h. Subsequently, the extracellular bacteria were killed with treatment of 2.5 μg/ml lysostaphin (Sigma-Aldrich, Germany) for 1.5 h. The cells were then washed, lysed, mechanically detached by scraping, diluted, and enumerated on TSA (Tryptic Soy Agar) plates to quantify the intracellular bacteria.

HaCaT cells = experiment: MTT cytotoxicity in HaCaT cells; format: cell-based, human; settings: for toxicity to HaCaT cells at tested concentration and exposure time: concentrations used in invasion studies (Fig. S1)
Description: MTT (3-(4,5-dimethylthiazol-2-yl)-2,5-diphenyl tetrazolium bromide) assay was employed to analyze the cytotoxicity of peptides and geldanamycin to the cells. 5 × 10^5 cells were seeded in a 96 flat bottom well plate and incubated for 2.5 or 24 h at 37°C with 5% CO2. The cells were then treated with increasing concentration (0 to 200 µM) of peptides or geldanamycin for 24 h. After the incubation, 10 μl of the MTT labelling reagent is added to each well to attain a final concentration 0.5 mg/ml, followed by 4 h incubation. Metabolically active cells convert the yellow tetrazolium salt to purple formazan crystals, which were solubilized using the solubilization solution (DMSO) and measured for absorbance at λmax/λref–570/690 nm (Saising et al. [2018]).

Hsp90α = target: T1, Hsp90α (Homo sapiens, UniProt P07900); format: binding; settings: dot blot, 2 µg blotted on membrane, 20 µg recombinant Hsp90α at 4°C overnight, α-Hsp90α immunodetection
T1 construct: purchased Abcam
Description: Two µg of each peptide was blotted (dot blot) directly on PDV nitrocellulose membrane and blocked with ROTI®Block (Carl Roth, Germany). After washing, the membrane was then incubated with 20 μg of recombinant Hsp90α (Abcam)/Lpl1-his protein at 4°C overnight. In case of interaction studies with Hsp90α, α-Hsp90α (produced in mouse, Abcam) was used as the primary antibody and for interaction studies with Lpl1-his, Anti-6X His tag antibody (also produced in mouse, Sigma-Aldrich, Germany) was used. Alkaline phosphatase conjugated goat-α-mouse IgG (Sigma-Aldrich, Germany) served as the secondary antibody. Detection was done using BCIP®/NBT solution (Sigma, Germany). Lpl1-his was isolated and purified as described in our previous paper (Tribelli et al. [2020]).

Staphylococcus aureus = experiment: Bacterial growth kinetics; format: cell-based; settings: OD578 every 1 h for 24 h, 37°C, TSB
Description: Staphylococcus aureus precultured in TSB overnight were inoculated to OD∼0.01 into a 48 well plate and L15 and L13 were added to study the effect of peptides on bacterial growth using Varioskan LUX Multimode Microplate Reader. With this instrument, a kinetic measurement of OD578 nm was obtained every 1 h for a total of 24 h, at 37°C with continuous shaking.

S. aureus Newman = experiment: Galleria mellonella larvae infection model, S. aureus Newman; format: in vivo; settings: peptides 60 mg/kg, vancomycin 20 mg/kg, injected 1 h before 10^6 cfu; 37°C
Description: Galleria mellonella larvae, purchased from Feeders & more GmbH, Germany, were sorted based on weight and used within one week. Ten larvae per group with weight average of 500 mg/larvae were injected with bacteria and/or peptides on its last proleg using a BD insulin syringe. The dosage used for the experiment were 60 mg/kg for peptides, 5 mg/kg of geldanamycin and 20 mg/kg for vancomycin. Each larva was injected with 10 µl of L15 (last left proleg) 1 h before administration of 10^6 cfu S. aureus (last right proleg). The larvae were maintained at 37°C and observed for mortality every day over the course of 5 days.

GHYFVTTFY [L13]
relative F-actin content in N/TERT-1 cells [1]: 0.81 ± 0.03
IL-6 production of infected PBMCs [2]: significantly increased
relative invasion (intracellular USA300 count) in HaCaT at 20 µM ([3]; untreated control 1.0 ± 0.0): 0.67 ± 0.05
relative invasion (intracellular USA300 count) in HaCaT at 40 µM ([3]; peptide 40 µM, untreated control 1.0 ± 0.0): 0.41 ± 0.03
relative invasion (intracellular USA300 count) in HaCaT at 50 µM ([3]; untreated control 1.0 ± 0.0): 0.73 ± 0.18
decrease in uptake/invasion of S. aureus USA300 by HaCaT cells compared to untreated control [3]: 50–60%
concentration from which a significant reduction of intracellular USA300 was observed [3]: ≥ 20 µM
solubility in PBS (Solubility in PBS): poor solubility in PBS
invasion of S. aureus USA300 into N/TERT-1 cells [4]: inhibits the invasion
percentage of viable cells, HaCaT, 1 µM (HaCaT cells; MTT, 24 h, 1 µM): 103.05 ± 10.06%
percentage of viable cells, HaCaT, 200 µM (HaCaT cells; MTT, 24 h, 200 µM): 83.79 ± 11.13%
toxicity to HaCaT cells at tested concentration and exposure time (HaCaT cells): neither inhibit the viability of host cells
Interaction with Hsp90α (Hsp90α): Yes
effect on growth of S. aureus (Staphylococcus aureus): did not detect any effect on growth
larvae surviving on day 5, S. aureus Newman (S. aureus Newman): 46%

TAKGHYFVTTFYRNG [L15]
relative F-actin content in N/TERT-1 cells [1]: 0.9 ± 0.02
IL-6 production of infected PBMCs [2]: significantly increased
relative invasion (intracellular USA300 count) in HaCaT at 20 µM ([3]; untreated control 1.0 ± 0.0): 0.33 ± 0.24
relative invasion (intracellular USA300 count) in HaCaT at 50 µM ([3]; untreated control 1.0 ± 0.0): 0.40 ± 0.05
decrease in uptake/invasion of S. aureus USA300 by HaCaT cells compared to untreated control [3]: 50–60%
concentration from which a significant reduction of intracellular USA300 was observed [3]: ≥ 20 µM
solubility in PBS (Solubility in PBS): better soluble
invasion of S. aureus USA300 into N/TERT-1 cells [4]: inhibits the invasion
toxicity to HaCaT cells at tested concentration and exposure time (HaCaT cells): neither inhibit the viability of host cells
Interaction with Hsp90α (Hsp90α): Yes
effect on growth of S. aureus (Staphylococcus aureus): did not detect any effect on growth
larvae surviving on day 5, S. aureus Newman (S. aureus Newman): 36%
